Measured values taken from patent US12358923B2, “Seminaphthofluorophore-selenium probes for thioredoxin reductase” (Portland State University, priority 2019, dated 2025).

Key:
[1] = Maximum absorbance and emission wavelengths of the seminaphthofluorophore scaffolds; type: physicochemical; details: seminaphthofluorophore scaffold (without the diselenide moiety/moieties) of the compound; 10% DMSO, 100 mM phosphate buffer, pH 7.4
Method: Initial absorbance measurements were performed on a Cary Eclipse™ 50 Bio UV-Vis spectrophotometer. Fluorescence measurements were performed on a Cary Eclipse™ fluorescence spectrophotometer (Agilent Technologies, Santa Clara, CA).

[2] = Turn-on response of probe on reduction of the diselenide with dithiothreitol (DTT); details: 10 μM probe
Method: To determine if determine if probe 1 would elicit a turn-on response, dithiothreitol (DTT) was used to reduce the diselenide into the selenolate. DTT is known to reduce both disulfides and diselenides. Excitation and emission spectra were obtained for a 10 μM solution of 1 in 0.3% DMSO, 0.2% NP-40 (nonyl phenoxypolyethoxylethanol), 1 mM EDTA, and 50 mM Tris buffer, pH 7.4, initially without DTT and then with an equimolar amount of DTT (FIG. 1).
To investigate the reactivity and optical responses of probe 1, an aqueous solution of 10 μM probe 1, 10 μM DTT in 0.3% DMSO, 0.2% NP-40, 1 mM EDTA and 50 mM Tris buffer, pH 7.4 was prepared. DTT is a powerful reducing agent for both diselenides and disulfides and might be expected to react with probe 1 by a mechanism similar to the TrxR1 enzyme. […] Excitation at 531 nm afforded emission with a λmax at 580 nm, as expected for the formation of compound 2, which was also monitored by HPLC-MS.

TrxR1 from rat liver = target: T1, TrxR1 from rat liver (Rattus norvegicus, UniProt O89049); test: TrxR1 enzymatic assay and kinetic study (fluorescence increase, NADPH depletion); type: biochemical
T1 construct: from tissue; host or cells: rat liver
T1 sequence (O89049 1-499): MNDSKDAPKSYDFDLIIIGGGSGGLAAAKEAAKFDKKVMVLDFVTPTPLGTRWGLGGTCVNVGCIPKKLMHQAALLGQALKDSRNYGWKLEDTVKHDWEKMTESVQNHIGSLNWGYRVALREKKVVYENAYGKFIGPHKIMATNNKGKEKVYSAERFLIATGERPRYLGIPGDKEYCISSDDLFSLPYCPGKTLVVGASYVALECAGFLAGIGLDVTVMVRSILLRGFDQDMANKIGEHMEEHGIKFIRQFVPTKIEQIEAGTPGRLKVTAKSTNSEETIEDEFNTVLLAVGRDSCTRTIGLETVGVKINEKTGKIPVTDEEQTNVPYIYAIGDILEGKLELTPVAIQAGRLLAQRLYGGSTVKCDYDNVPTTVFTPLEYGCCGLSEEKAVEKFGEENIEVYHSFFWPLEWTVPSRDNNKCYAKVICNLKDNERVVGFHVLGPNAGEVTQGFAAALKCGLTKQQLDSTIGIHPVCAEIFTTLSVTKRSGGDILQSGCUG
Method: Enzymatic assays were carried out using TrxR1 from rat liver in the presence of 20 μM probe 1, 10 mM EDTA, 0.2 mg/mL BSA, and 0.24 mM NADPH in phosphate buffer (100 mM, pH 7.4). This solution was pipetted into four different wells in a 96-well plate. 0.03, 0.06 and 0.12 units of TrxR1 were added to different reaction mixtures. Control experiments were set up by omitting either probe 1, NADPH or TrxR1 from the mixtures. After all the reagents had been mixed, the wells were immediately monitored for change in fluorescence (λex=531 nm; λem=580 nm) and NADPH absorbance (λabs,max 340 nm). TrxR1 activity was monitored via fluorescence emission increase of probe 1 (λex=531 nm; λem=580 nm) as well as the depletion of NADPH (λabs=340 nm) upon incubation. Reactions were monitored in black 96-well plates with clear bottoms using a fluorescence plate reader. NADPH and TrxR1 were both required for the conversion of probe 1 to compound 2 and the concomitant turn-on emission (FIG. 2). […] The proposed mechanism for the reaction of probe 1 in the presence of TrxR1 and NADPH is shown in Scheme 7. Nucleophilic attack of the diselenide occurs through the TrxR1 […] residue. The selenolate formed attacks the carbamate carbonyl, and an oxaselenolanone heterocycle and the fluorescent probe 2 are released.
Kinetic studies were carried out for six reaction mixtures with varying amounts (1-20 μM) of probe 1 over 20 min. Reaction mixtures were made with concentrations of: TrxR1 0.12 units, 100 mM phosphate buffer, pH 7.4; 10 mM EDTA, 0.2 mg/mL BSA and 0.24 mM NADPH. 1 was added at different concentrations in the reaction mixture: 20 μM, 10 μM, 5 μM, 3 μM, 1 μM and 0 μM. The reaction was monitored through the change in fluorescence (λex=531 nm; λem=580 nm) and a fluorescence vs time graph was plotted for each substrate concentration (FIG. 3). […] The fluorescence data also was plotted as a reaction rate vs substrate concentration graph (FIG. 4).

[3] = Selectivity against other biological thiols and ions (fluorescence response); type: biochemical; details: 20 μM probe, 20 minutes; 100 μM Na2S, Na2SO3, Na2SO4, Na2S2O3, Hcy, Cys or 1 mM GSH; phosphate buffer pH 7.4
Method: The selectivity of TrxR1 for probe 1 was evaluated against other biological thiols and ions. Probe 1, at a concentration of 20 μM, was incubated for 20 minutes with 0.12 units TrxR1, 100 μM Na2S, 100 μM Na2SO3, 100 μM Na2SO4, 100 μM Na2S2O3, 100 μM homocysteine (Hcy), 100 μM cysteine (Cys), or 1 mM glutathione (GSH) in 100 mM phosphate buffer, pH 7.4; 10 mM EDTA, 0.2 mg/mL BSA and 0.24 mM NADPH.

A375 melanoma cell line = test: MTS cytotoxicity assay (CellTiter 96 Aqueous One Solution); type: cell-based; details: Homo sapiens, A-375, A375 cells
Method: (§1) MTS cytotoxicity assays for probe 1 were carried out using the CellTiter 96® Aqueous One Solution Cell Proliferation Assay (Promega Corporation, Madison, WI), with A375 and SK-MEL-5 melanoma cell lines. The following treatment groups were made:
(§2) The IC50 is the probe concentration required to kill 50% of the cells in the specified time period.

[4] = tested on: SK-MEL-5 melanoma cell line; test: as above; type: cell-based; details: Homo sapiens, SK-MEL-5 cells
Method: as §1, §2

[5] = equimolar DTT, 0.3% DMSO, 0.2% NP-40, 1 mM EDTA, 50 mM Tris buffer, pH 7.4

Compound: COc1cccc2ccc3c(c12)Oc1cc(NC(=O)OCC[Se][Se]CCO)ccc1C31OC(=O)c2ccccc21 (stereo not drawn) [Probe 1]
- λmax, abs (nm) [1]: 531 nm
- λmax, em (nm) [1]: 580 nm
- Emission λmax after addition of DTT ([2]; 10 μM DTT, Tris buffer pH 7.4, excitation at 531 nm, formation of compound 2): 580 nm
- Colour change of solution with DTT [2, 5]: colorless to red
- Fluorescence turn-on response with DTT [2, 5]: instantaneous turn-on response
- Time at which fluorescence intensity began to plateau (TrxR1 from rat liver; 20 μM probe, 0.12 units TrxR, 0.24 mM NADPH, phosphate buffer pH 7.4, λex 531 nm, λem 580 nm): 20 min
- Fluorescence in the absence of NADPH or TrxR (TrxR1 from rat liver; 20 μM probe, control omitting NADPH or TrxR1): no fluorescence was observed
- Km (TrxR1 from rat liver; 1-20 μM probe, 0.12 units TrxR1, 0.24 mM NADPH, 100 mM phosphate buffer pH 7.4, 20 min): 15.9 µM
- Change in fluorescence with other thiols and ions compared with TrxR1 [3]: None afforded a significant change in fluorescence
- IC50 (A375 melanoma cell line; 24 hours): 3530 nM
- IC50 (A375 melanoma cell line; 48 hours): 2230 nM
- IC50 (A375 melanoma cell line; 72 hours): 2550 nM
- IC50 ([4]; 24 hours): 4770 nM
- IC50 ([4]; 48 hours): 3100 nM
- IC50 ([4]; 72 hours): 2300 nM
